{"source": "patent US20100196476A1", "about": "“PROCESS FOR THE PREPARATION AND PHARMACEUTICAL FORMULATIONS FOR 4-QUINOLINONES AND QUINOLINES AND USE THEREOF” (FUNDACAO UNIVERSIDADE FEDERAL DE SAO CARLOS, priority 2007, published 2010)", "key": {"[1]": {"tested_on": "coagulant serine proteases", "test": "initial screening, coagulant activity of snake venoms", "assay_type": "biochemical, Bothrops jararacussu, B. moojeni, B. alternatus", "conditions": "first screening assay, FIG. 2", "protocol": "(§1) This screening was for the venoms of the Bothrops jararacussu, B. moojeni, B. alternatus and B. jararacussu BjussuMP-I snakes to determine promising compounds.\n(§2) Aliquots of plasma (0.2 mL) were incubated with venom or venom/inhibitor (50 μL) in varying proportions (m/m) during a period of 30 minutes at 37° C. and the coagulation time was verified. The control tubes included plasma incubated with phosphate buffered saline solution (PBS)+calcium or dimethyl sulphoxide or only the compound."}, "[2]": {"tested_on": "haemorrhagic metalloprotease of the venoms", "test": "initial screening, haemorrhagic metalloprotease of the venoms", "design": "species or system Bothrops jararacussu, B. moojeni, B. alternatus", "conditions": "first screening assay, FIG. 2", "excerpt": "as §1"}, "[3]": {"tested_on": "venom of Bothrops and the isolated metalloprotease", "test": "haemorrhage induced by Bothrops venoms and isolated metalloprotease (FIG. 3A)", "assay_type": "in vivo", "conditions": "venom of Bothrops and Crotalus snakes and isolated metalloprotease", "protocol": "FIG. 3A: Effect of compound 2 on the haemorrhage induced by the venom of Bothrops and the isolated metalloprotease. FIG. 3B: Effect of compound 2 on the proteolytic activity induced by the venom of Bothrops and the isolated metalloprotease. FIG. 3C: Effect of the coagulant activity of compound 2 induced by the venoms of Bothrops and Crotalus and the isolated serine protease. The results are expressed by the mean±standard deviation (SD) (n=6).\nTherefore, further assays were performed to determine the efficiency of compound 2 for various other activities. FIG. 3A presents the effects of 2 on haemorrhages induced by the different venoms of the Bothrops genus snakes and an isolated metalloprotease."}, "[4]": {"tested_on": "snake venoms and isolated metalloprotease", "test": "proteolytic activity in casein (FIG. 3B)", "assay_type": "biochemical, Bothrops", "conditions": "induced by snake venoms and isolated metalloprotease"}, "[5]": {"target": "Class I metalloprotease neuwiedase (Bothrops pauloensis, UniProt Q9I9R4)", "sequence (Q9I9R4 whole entry, looked up)": "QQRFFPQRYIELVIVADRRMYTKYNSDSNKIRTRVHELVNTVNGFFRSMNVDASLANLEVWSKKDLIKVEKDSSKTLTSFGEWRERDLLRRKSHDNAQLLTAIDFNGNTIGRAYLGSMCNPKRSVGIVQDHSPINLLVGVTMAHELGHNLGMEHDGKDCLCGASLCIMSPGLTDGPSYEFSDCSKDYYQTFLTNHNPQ", "assay_type": "biochemical, B. neuwiedi"}, "[6]": {"tested_on": "snake venoms and isolated serine protease", "test": "coagulant activity in human plasma (FIG. 3C)", "assay_type": "biochemical, Bothrops and Crotalus", "conditions": "induced by snake venoms and isolated serine protease", "protocol": "as §2"}, "[7]": {"tested_on": "venom of B. jararacussu (BjussuSP-I)", "test": "coagulant activity, B. jararacussu venom", "assay_type": "biochemical", "conditions": "FIG. 3C", "protocol": "as §2"}, "[8]": {"tested_on": "venom of C. d. terrificus (gyroxin)", "test": "coagulant activity, C. d. terrificus venom", "assay_type": "biochemical", "conditions": "FIG. 3C", "protocol": "as §2"}, "[9]": {"tested_on": "venom of B. jararacussu, BjussuSP-I and BjussuMP-I", "test": "fibrinogenolytic activity on bovine fibrinogen, SDS-PAGE (FIG. 4A)", "assay_type": "biochemical", "conditions": "enzymes incubated with inhibitor 30 minutes at 37° C., 1:10 by mass", "protocol": "Lanes: 1—Fibrinogen+venom of B. jararacussu (4 μg)+2 (40 μg); 2—Fibrinogen+enzyme BjussuSP-I (2 μg)+2 (20 μg); 3—Fibrinogen+BjussuMP-I (2 μg)+2 (20 μg); 4—Fibrinogen control. The enzymes were incubated together with 2 for 30 minutes at 37° C. The results are expressed by the mean±S.D (n=3). (B): Interaction between the venom of the B. jararacussu snake and 2. Samples containing venom/toxin (20 μg) and the […] (600 μg) were incubated for 30 minutes at 37° C. at a ratio of 1:30 (w/w). Lanes: 1—BthTX-I+2; 2—BthTX-II+2; 3—venom of B. jararacussu+2; 4—only BthTX-I; 5—only BthTX-II; 6—only the venom of B. jararacussu."}, "[10]": {"tested_on": "venoms and isolated PLA2s", "test": "myotoxic activity in mice (plasma CK)", "assay_type": "in vivo", "conditions": "induced by venoms of B. jararacussu and C. durissus terrificus and isolated PLA2s"}, "[11]": {"tested_on": "venoms and isolated PLA2s", "test": "oedema inducing activity in mice", "assay_type": "in vivo", "conditions": "induced by venoms of B. jararacussu and C. durissus terrificus and isolated PLA2s", "protocol": "The oedemas are induced by the direct injection of venom (20 μg) and purified proteins (20 μg) into the right leg of male Swiss mice (18-22 g). Inhibition activity is verified incubating the venom or isolated protein with the inhibitor in varying concentrations (m/m). The control groups are injected with 50 μL of phosphate buffered saline solution (PBS, pH=7.2) alone, dimethyl sulphoxide (DMSO) or the compounds. Oedema progression is assessed through measurement of the […] using a pachymeter (Mitutoyo, Japan) at intervals of 30 and 60 minute after injection."}, "[12]": {"tested_on": "venoms and isolated PLA2s", "test": "phospholipase A2 activity (indirect haemolytic)", "assay_type": "biochemical", "conditions": "induced by venoms of B. jararacussu and C. durissus terrificus and isolated PLA2s", "protocol": "(§3) Indirect haemolytic activity is tested using agarose-erythrocyte-egg yolk gel as a substrate. The compounds are tested following incubation with the pure venoms or PLA2 in varying ratios (m/m)."}, "[13]": {"tested_on": "basic Asp49 PLA2s (BthTX-II and CB)", "test": "phospholipase A2 activity, basic Asp49 PLA2s", "assay_type": "biochemical, B. jararacussu and C. d. terrificus", "conditions": "compared with pure venoms and acid isoform Asp49 BthA-1-PLA2, FIG. 5C", "protocol": "as §3"}}, "data": [{"smiles": "O=c1cc(CO)[nH]c2ccccc12", "note": "[Compound 1, 2-hydroxymethyl-1,4-dihydro-4-quinolinone]", "values": [{"measurement": "inhibition of coagulant serine proteases", "setting": "[1]", "value": "partial inhibition"}]}, {"smiles": "COc1ccc2[nH]c(CO)cc(=O)c2c1", "note": "[Compound 2, 2-hydroxymethyl-6-methoxy-1,4-dihydro-4-quinolinone]", "values": [{"measurement": "inhibition of coagulant serine proteases", "setting": "[1]", "value": "partial inhibition"}, {"measurement": "inhibition of the haemorrhagic metalloprotease of the venoms", "setting": "[2]", "value": "potential of inhibiting"}, {"measurement": "effect on haemorrhages induced by venom", "setting": "[3]", "value": "inhibits"}, {"measurement": "inhibition of proteolytic activity on casein", "setting": "[4]", "value": "significantly inhibits"}, {"measurement": "inhibition of proteolytic activity", "setting": "[5]", "value": "approximately 67%"}, {"measurement": "inhibition of coagulant activity in human plasma", "setting": "[6]", "value": "significantly inhibits"}, {"measurement": "action on coagulation", "setting": "[7]", "value": "powerful coagulation action"}, {"measurement": "action on coagulation", "setting": "[8]", "value": "powerful coagulation action"}, {"measurement": "inhibition of fibrinogenolytic activity", "setting": "[9]", "value": "inhibition"}, {"measurement": "effect on myotoxicity", "setting": "[10]", "value": "partially reduced"}, {"measurement": "effect on oedema", "setting": "[11]", "value": "partially reduced"}, {"measurement": "effect on activity for phospholipase", "setting": "[12]", "value": "partially reduced"}, {"measurement": "neutralising PLA2 activity", "setting": "[13]", "value": "more efficient"}]}, {"smiles": "CCOc1cc(CO)nc2ccc(OC)cc12", "note": "[Compound 10, 4-ethoxy-2-hydroxymethyl-6-methoxyquinoline]", "values": [{"measurement": "inhibition of coagulant serine proteases", "setting": "[1]", "value": "partial inhibition"}]}, {"smiles": "CCOCc1cc(OCC)c2cc(OC)ccc2n1", "note": "[Compound 11, 4-ethoxy-2-ethoxymethyl-6-methoxyquinoline]", "values": [{"measurement": "inhibition of coagulant serine proteases", "setting": "[1]", "value": "partial inhibition"}]}, {"smiles": "O=C(O)c1cn(C2CC2)c2cc(N3CCNCC3)c(F)cc2c1=O", "note": "[Compound 13, 1-ciclopropyl-6-fluoro-1,4-dihydro-4-oxo-7-(1-piperazinyl)-3-quinolinecarboxylic acid, reference compound]", "values": [{"measurement": "inhibition of coagulant serine proteases", "setting": "[1]", "value": "partial inhibition"}]}]}
